# Entries after “also recorded” stand apart in the source; their conditions may differ.
# How the values were obtained:
# PI3Kα isoform = details: role: inhibitor; relative to PI3 KB, PI3K8 and PI3Ky isoforms; cited from earlier work
# [1] = Light sensitivity of GDC-0077 (INAVOLISIB); type: physicochemical
# mutant PI3Kα = details: role: inhibitor; relative to non-mutant PI3Kα; cited from earlier work
compound,measurement,setting,value
"C[C@H](Nc1ccc2c(c1)OCCn1cc(N3C(=O)OC[C@H]3C(F)F)nc1-2)C(N)=O [GDC-0077 (INAVOLISIB), (S)-2-((2-((S)-4-(difluoromethyl)-2-oxooxazolidin-3-yl)-5,6-dihydrobenzo[f]imidazo[1,2-d][1,4]oxazepin-9-yl)amino)propanamide]",Selectivity for PI3Kα isoform (in words),PI3Kα isoform,"selectively inhibits the PI3Kα isoform relative to the PI3 KB, PI3K8, and PI3Ky isoforms"
same,Light sensitivity (in words),[1],degrades under light stress conditions; also recorded: sensitive to light
same,Selectivity for mutant PI3Kα (in words),mutant PI3Kα,selective for mutant PI3Kα expressing tumors relative to non-mutant PI3Kα expressing cells; also recorded: selective activity in modulating mutant forms of the PI3Kα (alpha) isoform

# — patent US20260335335A1, “PHARMACEUTICAL FORMULATION COMPRISING A COATED TABLET” (Genentech, Inc., priority 2023, published 2026)
